This is an account of results in paper PMC11784145, “Efficacy and in vitro pharmacological assessment of novel N-hydroxypyridinediones as hepatitis B virus ribonuclease H inhibitors” (Antimicrobial Agents and Chemotherapy, 2024).

Where “and” joins values, the source holds several entries; their conditions need not be identical. Identical values can stand only once. Where only a bound is given, the exact number is not on record here.

The target of one data set is T1, CYP2D6 (Homo sapiens, UniProt P10635).
T1 construct: purchased Thermo Fisher Vivid 2D6 EOMCC Blue
T1 sequence (P10635 whole entry): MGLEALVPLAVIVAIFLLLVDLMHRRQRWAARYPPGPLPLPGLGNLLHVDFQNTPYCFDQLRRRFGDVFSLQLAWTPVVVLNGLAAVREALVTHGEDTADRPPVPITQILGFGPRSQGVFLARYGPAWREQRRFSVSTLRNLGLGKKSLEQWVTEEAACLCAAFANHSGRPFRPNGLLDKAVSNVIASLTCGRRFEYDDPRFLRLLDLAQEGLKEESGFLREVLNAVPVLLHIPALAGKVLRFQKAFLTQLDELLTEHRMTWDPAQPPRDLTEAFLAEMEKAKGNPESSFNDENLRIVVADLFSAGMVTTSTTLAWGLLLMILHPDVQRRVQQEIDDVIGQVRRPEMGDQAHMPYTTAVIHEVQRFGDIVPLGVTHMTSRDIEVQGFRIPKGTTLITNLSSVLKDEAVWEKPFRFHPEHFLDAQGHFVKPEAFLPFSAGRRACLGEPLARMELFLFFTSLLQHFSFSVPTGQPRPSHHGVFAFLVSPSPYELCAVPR
Nature of the data set: Cytochrome P450 inhibition, Vivid 2D6 EOMCC Blue kit. The class given is in vitro ADME. As to conditions: for IC50: dose-response 50 µM to 3 nM, mean ± SD. On the procedure: Compound inhibition of Cytochrome P (CYP) 3A4, 2C9, and 2D6 was determined using Vivid CYP450 screening kits (Thermo Fisher) according to the manufacturer’s instructions, as described previously ([27]). The kits employed were: Vivid 3A4 DBOMF Green, 2C9 BOMF Green, and 2D6 EOMCC Blue. Reactions were initiated by addition of the fluorophore-conjugated substrates with Vivid NADP^+ and were conducted at 37°C using either a Biotek Synergy HTX multi-mode plate reader with 485/20 nm excitation and 520/20 nm emission filters (green-fluorescent substrate), or a Tecan Spark plate reader with monochromator settings at 415/20 nm excitation and 460/20 nm emission (blue-fluorescent substrate) defined by the Center Wavelength/band-pass values. Substrate cleavage was detected every 60 s.
Compounds were initially screened against each enzyme at 10 µM and maximum rates of fluorescence in RFU were calculated using the Biotek Gen5 v3.11 software. Percent inhibition of experimental compound reactions was normalized to the rate to DMSO vehicle reactions. Positive controls used were: CYP3A4—ketoconazole (Sigma Aldrich), CYP2C9—sulfaphenazole (Cayman Chemical), and CYP2D6—quinidine (Fisher Scientific). Dose-response curves were generated for compounds that inhibited an enzyme by ≥50% using titrated concentrations of compound (50 µM to 3 nM) or 1% DMSO. IC50 values were determined using the four-parameter log[inhibitor] versus response algorithm in GraphPad Prism. Qualitative screens and dose-response curves were each performed in triplicate on different days.

Data set [1] has as its system HBV plus-polarity DNA in hepDES19 cells. Nature of the data set: Effect of plasma proteins on compound potency. The class given is cell-based, hepatitis B virus. As to conditions: 10 µM compound, 72 h, media with BSA to 40 mg/mL versus 10% FBS (0.25 mg/mL BSA). On the procedure: HBV plus-polarity DNA suppression was assessed in hepDES19 cells following compound treatment for 72 h. Cells incubated with compound (10 µM) in either normal tissue culture media conditions containing 10% FBS, or in media supplemented with bovine serum albumin (BSA) to 40 mg/mL. Percent inhibition was determined, as described previously ([27], [28]). The presence of increased BSA levels was determined to affect compound potency if there was a statistically significant decrease in percent HBV plus polarity DNA suppression when compared to cells treated with compound in normal media conditions. Three or more replicate assays were performed on separate days.

The test system of data set [2] is primary human hepatocytes (PHHs). Nature of the data set: Primary human hepatocyte cytotoxicity (MTS assay). The class given is cell-based. As to conditions: 72 h, highest concentration tested 100 µM, mean ± SD, read-out: PHH CC50. The method, then:
PHH cytotoxicity was determined by MTS assays following 72 h compound exposure, as described in Woodson et al. ([27]).

The test system of the next data set is CYP3A4 mRNA expression. Nature of the data set: CYP3A4 induction, RT-qPCR in HepG2 cells. As to conditions: 10 µM, 24 or 48 h, normalized to GAPDH and DMSO. On the technique in general: Quantitative PCR measures a nucleic acid by following its amplification.

Procedure for CYP3A4 mRNA expression: HepG2 cells were seeded on 12-well, tissue-culture-treated plates (Sarstedt) at 2.5 × 10^5 cells/well for 24 h. Cells were treated with 10 µM compound or 1% DMSO for 48 h with replenishment at 24 h. Cells were rinsed with PBS and lysed at 0, 24, and 48 h using TRI Reagent (Sigma Aldrich). […] Cellular DNA was degraded using DNase I (Invitrogen), according to the manufacturer’s instructions.
Complementary DNA (cDNA) synthesis employed the ProtoScript II First Strand cDNA Synthesis Kit (New England Biolabs) according to the manufacturer’s instructions with an additional incubation step at 25°C for 5 min. Reverse transcriptase-qPCR (RT-qPCR) was performed using a Quantstudio 5 (Thermo Fisher) in a final reaction volume of 20 µL with 4 µL cDNA template, 2× KAPA probe force master mix (Roche), 300 nM probe, and 100 nM forward and reverse primer. CYP3A4 expression was determined by normalizing the experimental sample cycle threshold values to DMSO-treated wells. GAPDH was used as a housekeeping gene.

As a reminder, the IC50 is the concentration at which inhibition is half-maximal. Turning to `CC(=NOCc1ccc(F)c(F)c1)c1c(C)cc(=O)n(O)c1O` [Compound 1617], the IC50 on CYP2D6 amounted to 4.46 µM. Also, the “Effect of increased albumin on HBV plus polarity DNA suppression” value in data set [1] is “physiologically relevant”.
The term CC50 denotes the concentration at which the toxic effect on the cells reaches its halfway point. Take `CC(=NOCc1cccc(F)c1)c1c(C)cc(=O)n(O)c1O` [Compound 1618]: the CC50 in data set [2] was 93.8 ± 10.7 µM. At CYP2D6, the “Selectivity index for CYP (CYP2D6) inhibition versus HBV EC50” value was > 150 and 166; the IC50 was determined as 10.2 ± 4.1 µM. The “CYP3A4 mRNA expression increase” value with CYP3A4 mRNA expression is less than 2 fold.
